The source of these data is US10494376B2, “Tetrahydroisoquinoline derived PRMT5-inhibitors” (CTXT PTY LTD, priority 2014, dated 2019).

By IC50 is commonly meant the point on the concentration scale where inhibition reaches its midpoint. High values mean lower potency, low ones higher potency.

Molecules are shown by their SMILES. Counter-ions that a name gives are not always drawn.

Chain of Full-length PRMT5 enzyme (NCBI Reference sequence NP_006100.2) co-expressed with His6-MEP50 (O14744 whole entry): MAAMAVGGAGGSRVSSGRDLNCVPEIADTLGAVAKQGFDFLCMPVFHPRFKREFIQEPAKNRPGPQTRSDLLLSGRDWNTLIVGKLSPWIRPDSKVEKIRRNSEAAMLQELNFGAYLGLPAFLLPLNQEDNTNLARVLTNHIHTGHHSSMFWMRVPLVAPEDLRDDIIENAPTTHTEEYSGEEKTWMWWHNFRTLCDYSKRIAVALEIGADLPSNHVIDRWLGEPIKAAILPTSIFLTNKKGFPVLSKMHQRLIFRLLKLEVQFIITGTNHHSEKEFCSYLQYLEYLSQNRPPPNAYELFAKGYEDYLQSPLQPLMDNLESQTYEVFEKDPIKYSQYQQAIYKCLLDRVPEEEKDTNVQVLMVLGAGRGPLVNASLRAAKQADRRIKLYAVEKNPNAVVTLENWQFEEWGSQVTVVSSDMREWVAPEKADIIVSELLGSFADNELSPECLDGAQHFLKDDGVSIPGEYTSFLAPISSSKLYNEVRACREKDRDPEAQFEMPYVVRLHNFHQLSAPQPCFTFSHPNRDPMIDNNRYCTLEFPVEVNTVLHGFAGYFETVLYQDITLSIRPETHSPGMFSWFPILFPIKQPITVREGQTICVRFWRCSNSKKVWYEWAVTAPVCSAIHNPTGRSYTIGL
Chain of Full-length PRMT5 enzyme (NCBI Reference sequence NP_006100.2) co-expressed with His6-MEP50 (Q9BQA1 whole entry partner): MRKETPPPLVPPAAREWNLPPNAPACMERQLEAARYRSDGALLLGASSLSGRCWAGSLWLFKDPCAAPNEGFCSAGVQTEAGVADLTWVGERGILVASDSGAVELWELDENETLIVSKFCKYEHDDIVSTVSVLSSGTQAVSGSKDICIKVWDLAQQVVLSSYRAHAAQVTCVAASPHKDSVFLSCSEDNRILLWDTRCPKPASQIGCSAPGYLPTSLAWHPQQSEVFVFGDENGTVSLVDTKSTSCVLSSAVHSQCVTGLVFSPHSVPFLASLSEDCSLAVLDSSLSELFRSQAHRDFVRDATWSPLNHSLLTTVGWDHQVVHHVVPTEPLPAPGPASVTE

The experiment addresses Full-length PRMT5 enzyme (NCBI Reference sequence NP_006100.2) co-expressed with His6-MEP50 (Homo sapiens (Human), UniProt O14744). The experiment can be described thus: Revised PRMT5 Biochemical Assay. Particulars: 1 μM peptide substrate, 1 μM S-Adenosyl methionine, 4 hours at 37 degree Celsius, Transcreener EPIGEN fluorescence polarisation. As to the method: Compounds of the invention may be tested for in vitro activity in the following assay: A histone H4 derived peptide is used as substrate (amino acid sequence: […]N H2). Full-length PRMT5 enzyme (NCBI Reference sequence NP_006100.2) was co-expressed with His6-MEP50 in insect cells and purified via Nickel immobilized metal affinity and gel filtration chromatography (“the enzyme”).
The 6 μL reactions are run in Greiner brand black 384-well low volume assay plates. All reactions contained assay buffer (phosphate buffered saline, 0.01% (v/v) Tween-20, 0.01% (w/v) albumin from chicken egg white, 1 mM Dithiothreitol, 1 μM peptide substrate, 1 μM S-Adenosyl methionine, and 15 ng/reaction enzyme, with the enzyme being omitted from negative control reactions. Compounds were added in a volume of 100 nL from dilution series prepared in DMSO, positive and negative control reactions receiving the same volume DMSO without compound. The plates were sealed with adhesive seals and incubated for 4 hours at 37 degree Celsius. Reaction progress was measured using the Transcreener™ EPIGEN methyltransferase assay (BellBrook Labs, Madison, Wis.) as recommended by the manufacturer. To each reaction 2 μL detection mix were added, containing coupling enzymes, fluorescence polarisation tracer, and AMP antibody. Plates were incubated for 90 minutes before being read on a PerkinElmer EnVision™ plate reader in fluorescence polarisation mode. IC50 values were obtained from the raw readings by calculating percent inhibition (%1) for each reaction relative to controls on the same plate (% I=(I−CN)/(CP−CN) where CN/CP are the averages of the negative/positive reactions, respectively), then fitting the %1 data vs. compound concentration [I] to % I=(A+((B−A)/(1+((C/[I])^D)))) where A is the lower asymptote, B is the upper asymptote, C is the IC50 value, and D is the slope.
Compound `O=C(NC[C@@H](O)[C@@H]1Cc2ccccc2CN1)c1ccc(C(=O)N2CC3CC2CO3)cc1` (mixture of isomers) [Example 94, 4-(2-Oxa-5-azabicyclo[2.2.1]heptane-5-carbonyl)-N-((R)-2-hydroxy-2-((S)-1,2,3,4-tetrahydroisoquinolin-3-yl)ethyl)benzamide] displayed an IC50 of 780 nM. As to `O=C(NC[C@@H](O)[C@@H]1Cc2ccccc2CN1)c1ccccc1Cl` [Example 4, 2-Chloro-N-((R)-2-hydroxy-2-((S)-1,2,3,4-tetrahydroisoquinolin-3-yl)ethyl)benzamide], half-maximal inhibition (IC50) was put at 8790 nM. Then `O=C(NC[C@@H](O)[C@@H]1Cc2ccccc2CN1)c1ccccc1C(F)(F)F` [Example 5, N-((R)-2-Hydroxy-2-((S)-1,2,3,4-tetrahydroisoquinolin-3-yl)ethyl)-2-(trifluoromethyl)benzamide], with 51100 nM. Under `O=C(NC[C@@H](O)[C@@H]1Cc2ccccc2CN1)c1ccccc1OC(F)(F)F` [Example 6, N-((R)-2-Hydroxy-2-((S)-1,2,3,4-tetrahydroisoquinolin-3-yl)ethyl)-2-(trifluoromethoxy)benzamide] stands 45800 nM; under `COc1ccccc1C(=O)NC[C@@H](O)[C@@H]1Cc2ccccc2CN1` [Example 7, N-((R)-2-Hydroxy-2-((S)-1,2,3,4-tetrahydroisoquinolin-3-yl)ethyl)-2-methoxybenzamide], 20000 nM; under `O=C(NC[C@@H](O)[C@@H]1Cc2ccccc2CN1)c1ccccc1F` [Example 9, 2-Fluoro-N-((R)-2-hydroxy-2-((S)-1,2,3,4-tetrahydroisoquinolin-3-yl)ethyl)benzamide], 12500 nM. Under `Cc1ccccc1C(=O)NC[C@@H](O)[C@@H]1Cc2ccccc2CN1` [Example 10, N-((R)-2-Hydroxy-2-((S)-1,2,3,4-tetrahydroisoquinolin-3-yl)ethyl)-2-methylbenzamide] stands 22500 nM; under `O=C(NC[C@@H](O)[C@@H]1Cc2ccccc2CN1)c1cccc(-c2ccnnc2)c1` [Example 12, N-((R)-2-Hydroxy-2-((S)-1,2,3,4-tetrahydroisoquinolin-3-yl)ethyl)-3-(pyridazin-4-yl)benzamide], 663 nM.

Compound `O=C(NC[C@@H](O)[C@@H]1Cc2ccccc2CN1)c1ccc(-c2nnc(N3CCOCC3)o2)cc1` [Example 13, N-((R)-2-Hydroxy-2-((S)-1,2,3,4-tetrahydroisoquinolin-3-yl)ethyl)-4-(5-morpholino-1,3,4-oxadiazol-2-yl)benzamide] came in with an IC50 of 551 nM. The IC50 values of the last two compounds are within 1.5-fold of each other.

Compound `O=C(NC[C@@H](O)[C@@H]1Cc2ccccc2CN1)c1coc(-c2ccccc2)n1` [Example 14, N-((R)-2-Hydroxy-2-((S)-1,2,3,4-tetrahydroisoquinolin-3-yl)ethyl)-2-phenyloxazole-4-carboxamide] showed an IC50 of 2330 nM.

Regarding `O=C(NC[C@@H](O)[C@@H]1Cc2ccccc2CN1)c1csc(-c2ccccc2)n1` [Example 16, N-((R)-2-Hydroxy-2-((S)-1,2,3,4-tetrahydroisoquinolin-3-yl)ethyl)-2-phenylthiazole-4-carboxamide], the half-maximal inhibitory concentration (IC50) is 662 nM. Under `O=C(NC[C@@H](O)[C@@H]1Cc2ccccc2CN1)c1cnn(-c2cccnc2)c1` [Example 17, N-((R)-2-Hydroxy-2-((S)-1,2,3,4-tetrahydroisoquinolin-3-yl)ethyl)-1-(pyridin-3-yl)-1H-pyrazole-4-carboxamide dihydrochloride salt] stands 1270 nM. Then `O=C(NC[C@@H](O)[C@@H]1Cc2ccccc2CN1)c1cccc(-c2cncnc2)c1` [Example 18, N-((R)-2-Hydroxy-2-((S)-1,2,3,4-tetrahydroisoquinolin-3-yl)ethyl)-3-(pyrimidin-5-yl)benzamide], with 2100 nM; and `CC(=O)N1CCC(N(C)C(=O)c2ccc(C(=O)NC[C@@H](O)[C@@H]3Cc4ccccc4CN3)cc2)CC1` [Example 19, N^1-(1-Acetylpiperidin-4-yl)-N^4-((R)-2-hydroxy-2-((S)-1,2,3,4-tetrahydroisoquinolin-3-yl)ethyl)-N^1 methylterephthalamide], with 912 nM; and `O=C(NC[C@@H](O)[C@@H]1Cc2ccccc2CN1)c1cccc(C(F)F)c1` [Example 22, 3-(Difluoromethyl)-N-((R)-2-hydroxy-2-((S)-1,2,3,4-tetrahydroisoquinolin-3-yl)ethyl)benzamide], with 2150 nM.

In turn, `O=C(NC[C@@H](O)[C@@H]1Cc2ccccc2CN1)c1ccccc1C(F)F` [Example 23, 2-(Difluoromethyl)-N-((R)-2-hydroxy-2-((S)-1,2,3,4-tetrahydroisoquinolin-3-yl)ethyl)benzamide] returned a 50% inhibitory concentration (IC50) of 5140 nM.

The compound `O=C(NC[C@@H](O)[C@@H]1Cc2ccccc2CN1)c1cccc(C(=O)N2CCOCC2)c1` [Example 24, N-((R)-2-Hydroxy-2-((S)-1,2,3,4-tetrahydroisoquinolin-3-yl)ethyl)-3-(morpholine-4-carbonyl)benzamide] registered a 50% inhibitory concentration (IC50) of 3690 nM.

Compound `Cc1nnc(-c2ccc(C(=O)NC[C@@H](O)[C@@H]3Cc4ccccc4CN3)cc2)o1` [Example 25, N-((R)-2-Hydroxy-2-((S)-1,2,3,4-tetrahydroisoquinolin-3-yl)ethyl)-4-(5-methyl-1,3,4-oxadiazol-2-yl)benzamide] displayed an IC50 of 1700 nM. This IC50 lies about 2.2-fold lower than the previous one. Turning to `O=C(NC[C@@H](O)[C@@H]1Cc2ccccc2CN1)c1ccc(C(=O)N2CCOCC2)cn1` [Example 29, N-((R)-2-Hydroxy-2-((S)-1,2,3,4-tetrahydroisoquinolin-3-yl)ethyl)-5-(morpholine-4-carbonyl)picolinamide dihydrochloride salt], the IC50 is 535 nM. This IC50 lies about 3.2-fold lower than the previous one. Then `O=C(NC[C@@H](O)[C@@H]1Cc2ccccc2CN1)c1ccc(C(=O)N2CCC(O)(C(F)F)CC2)cc1` [Example 30, 4-(4-(Difluoromethyl)-4-hydroxypiperidine-1-carbonyl)-N-((R)-2-hydroxy-2-((S)-1,2,3,4-tetrahydroisoquinolin-3-yl)ethyl)benzamide], with 139 nM. `O=C(NCC1CCOCC1)c1ccc(C(=O)NC[C@@H](O)[C@@H]2Cc3ccccc3CN2)cc1` [Example 31, N^1-((R)-2-Hydroxy-2-((S)-1,2,3,4-tetrahydroisoquinolin-3-yl)ethyl)-N^4-((tetrahydro-2H-pyran-4-yl)methyl)terephthalamide] had an IC50 of 204 nM. In the case of `O=C(NC[C@@H](O)[C@@H]1Cc2ccccc2CN1)c1ccc(C(=O)N2CCC(CO)CC2)cc1` [Example 32, N-((R)-2-Hydroxy-2-((S)-1,2,3,4-tetrahydroisoquinolin-3-yl)ethyl)-4-(4-(hydroxymethyl)piperidine-1-carbonyl)benzamide], the 50% inhibitory concentration (IC50) amounted to 511 nM.

`CCS(=O)(=O)N1CCN(C(=O)c2ccc(C(=O)NC[C@@H](O)[C@@H]3Cc4ccccc4CN3)cc2)CC1` [Example 33, 4-(4-(Ethylsulfonyl)piperazine-1-carbonyl)-N-((R)-2-hydroxy-2-((S)-1,2,3,4-tetrahydroisoquinolin-3-yl)ethyl)benzamide] showed a 50% inhibitory concentration (IC50) of 305 nM. Under `CS(=O)(=O)N1CCC(NC(=O)c2ccc(C(=O)NC[C@@H](O)[C@@H]3Cc4ccccc4CN3)cc2)CC1` [Example 34, N^1-((R)-2-Hydroxy-2-((S)-1,2,3,4-tetrahydroisoquinolin-3-yl)ethyl)-N^4-(1-(methylsulfonyl)piperidin-4-yl)terephthalamide hydrochloride] stands 1680 nM.
